In PubChem BioAssay (NCI):
Where “and” joins values, the source holds several entries; their conditions need not be identical. Equal values may be shown once.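 Interpolation was linear, between the two tested concentrations surrounding the appropriate level; five concentrations were tested over 48 hours in 96-well plates. GI50 marks 50% less growth. TGI marks complete inhibition of growth.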

Tests used:
Assay in all cases: DTP human tumour cell line panel, 48 h
NCI-H460 lung = test system: NCI-H460 lung
TK-10 renal = test system: TK-10 renal
HS 578T breast = test system: HS 578T breast
MCF7 breast = test system: MCF7 breast
NCI-H522 lung = test system: NCI-H522 lung
ACHN renal = test system: ACHN renal
SF-295 CNS = test system: SF-295 CNS
K-562 leukemia = test system: K-562 leukemia
SN12C renal = test system: SN12C renal
RXF 393 renal = test system: RXF 393 renal

Row | SMILES | GI50 (NCI-H460 lung) [µM] | TGI (NCI-H460 lung) [µM] | GI50 (TK-10 renal) [µM] | TGI (TK-10 renal) | GI50 (HS 578T breast) [µM] | TGI (HS 578T breast) | GI50 (MCF7 breast) [µM] | TGI (MCF7 breast) | GI50 (NCI-H522 lung) [µM] | TGI (NCI-H522 lung) | GI50 (ACHN renal) [µM] | TGI (ACHN renal) [µM] | GI50 (SF-295 CNS) [µM] | TGI (SF-295 CNS) | GI50 (K-562 leukemia) [µM] | TGI (K-562 leukemia) [µM] | GI50 (SN12C renal) [µM] | TGI (SN12C renal) [µM] | GI50 (RXF 393 renal) [µM] | TGI (RXF 393 renal)
1 | CCOC(=O)Nc1ccc2nc(N3CCCCCC3)sc2c1 | 1.4 | > 38.7 | 5.07 | > 91 µM | 4.53 | > 100 µM | 0.857 | > 80.6 µM | 1.83 | 13.2 µM | 9.6 | > 74.1 | 0.856 | 11.4 µM | 0.501 | > 72.6 | 5.08 | > 100 | 1.99 | > 26.2 µM
2 | COc1ccc(/C(=C/c2ccc3ccccc3c2)c2nn[nH]n2)cc1OC | 2.81 | 16.3 | 18.5 | > 100 µM | 2.23 | 53.6 µM | 4.12 | > 100 µM | 1.14 | 35.8 µM | 11.3 | > 100 | 1.51 | 51.1 µM | 0.678 | > 100 | 9.97 | > 100 | 2.48 | 9.07 µM
3 | Cc1cc2c(C(=O)NCC#N)cccc2n1-c1nc2c(c(NCc3ccccc3)n1)CCCC2 | 0.261 | 0.686 | 0.331 | 0.976 µM | 0.386 | 47.5 µM | 0.25 | 8.17 µM | 0.242 | 0.842 µM | 0.28 | 1.24 | 0.191 | 0.444 µM | 0.372 | > 100 | 0.31 | 0.904 | 0.225 | 0.541 µM
4 | Nc1nc(=S)c2ncn(C3OC(CO)C(O)C3O)c2[nH]1 (stereo not drawn) | 0.571 | 12.2 | 0.633 | > 64.8 µM | 2.27 | > 86.1 µM | 0.389 | > 70.6 µM | 1.8 | > 100 µM | 0.944 | 42.6 | 0.531 | > 100 µM | 0.49 | > 61.1 | 3.98 | > 100 | 34.7 | > 100 µM
5 | CC(=O)N(C)c1cc(NCc2ccccc2)ccc1OCc1ccccc1 |  | 33.4 |  | 33.5 µM |  | 91 µM |  | 35.2 µM |  | 34 µM |  | 36.5 |  | 29.6 µM |  | 63.5 |  | 33.1 |  | 28.6 µM
6 | COc1ccc2nc3cc(Cl)ccc3c(NCCNCC(O)CO)c2c1 (stereo not drawn) | 0.631 | 3.33 | 3.11 | 12.4 µM | 3.75 | 21.1 µM | 0.624 | 10.1 µM | 0.984 | 3.93 µM | 2.27 | 13.3 | 2.33 | 12.3 µM | 0.807 | 10.2 | 0.946 | 9.94 | 1.66 | 4.75 µM
7 | CCC1(OC(=O)CNC)C(=O)OCc2c1cc1n(c2=O)Cc2cc3ccccc3nc2-1 (stereo not drawn) |  | 0.399 |  | 30.4 µM |  | 40.8 µM |  | 0.198 µM |  | 0.285 µM |  | 0.0184 |  |  |  | > 60.1 |  | 0.849 |  | 0.115 µM
8 | CN1CCN(Cc2ccc(NC(=O)c3cncc(C#Cc4c(N)ncc5c(F)cccc45)c3)cc2C(F)(F)F)CC1 | 0.803 | 1.57 | 0.951 | 1.71 µM | 0.812 | 2.18 µM | 0.55 | 1.31 µM | 0.75 | 1.66 µM | 0.708 | 1.36 | 0.89 | 1.77 µM | 0.005 | 0.738 | 0.743 | 1.43 | 0.799 | 1.54 µM
9 | Nc1c(C(=O)c2ccc(C#CCN3CCOCC3)cc2)cnn1-c1ccc(F)cc1 | > 25 | > 25 | > 25 | > 25 µM | > 25 | > 25 µM | > 25 | > 25 µM | > 25 | > 25 µM | > 25 | > 25 | > 25 | > 25 µM | > 25 | > 25 | > 25 | > 25 | > 25 | > 25 µM
10 | C=C1C(=O)O[C@@H]2C[C@@H]1CC[C@]1(C)O[C@H]1CC/C(C)=C/CC[C@@]2(C)O | 15.7 | 40.2 | 15.4 | 37.8 µM | 21.7 | 68.5 µM | 15.2 | 36 µM | 27.2 | > 100 µM |  |  | 29.7 | 92.5 µM | 34.3 | > 100 | 18.6 | 41.1 | 25.1 | 55.4 µM
11 | Cc1cncc(-c2nc(NCCc3c[nH]c4ccccc34)c3ncn(C(C)C)c3n2)c1 | 3.33 | 13.3 | 10.3 | 52.8 µM | 2.64 | 9.96 µM | 4.05 | 15.6 µM | 5.66 | 23.2 µM | 3.76 | 13.5 | 2.74 | 10.8 µM |  |  | 3.67 | 32.4 | 2.54 | 11.2 µM
12 | O=C(CN1CCN(CCN2C(=O)c3cccc4cccc(c34)C2=O)CC1)Nc1ccc2ncsc2c1 | 3.58 | 14.7 | 10.5 | 23.7 µM | 43.3 | > 100 µM | 4.65 | 17.5 µM | 3.96 | 18 µM | 4.09 | 16.5 | 4.9 | 20.7 µM |  |  | 5.5 | 19.9 | 6.32 | > 100 µM
13 | CS(=O)(=O)O[C@H]1C(=O)N(c2cc3c4ccccc4ccc3c3ccccc23)[C@@H]1c1ccccn1 | 2.39 | > 100 | 0.996 | > 100 µM | 0.428 | > 100 µM | 0.321 | > 100 µM | 0.573 | > 100 µM | 0.877 | > 100 | 0.291 | 11.8 µM |  |  | 0.737 | > 100 | 0.242 | 0.878 µM
14 | CC(=O)NC(CS)C(=O)O (stereo not drawn) |  | 62300 | > 100 | > 100 µM and 76500 µM | > 100 | > 100 µM and 87200 µM | > 100 | > 100 µM and 71300 µM | > 100 | > 100 µM and 46300 µM | > 100 | > 100 | > 100 | > 100 µM and 57700 µM |  |  | > 100 | > 100 | > 100 | > 100 µM and 69300 µM
